These results are taken from patent publication US20240262808A1, “XANTHINE OXIDASE INHIBITOR” (JIANGSU ATOM BIOSCIENCE AND PHARMACEUTICAL CO., LTD., priority 2021, published 2024).

One series deals with patients with gout. Conditions: cited from earlier work; for Sudden cardiac death, share of group: patients with gout, per treatment group.
Series [1] deals with rats with hyperuricemia induced by potassium oxonate. The series is described as follows: Treatment of hyperuricemia in rats induced by potassium oxonate, serum uric acid. In kind it is in vivo, SD rat. Conditions: for Uric acid 1 h: 1 h after potassium oxonate; for Uric acid 3 h: 3 h after potassium oxonate; for Uric acid 5 h: 5 h after potassium oxonate; for Uric acid 0 h: before potassium oxonate injection; for Serum uric acid level compared with model group: 1 and 2 mg/kg groups, at 1, 3 and 5 h after model establishment. As for the experimental part: Compounds 15, 24 and 38 were white powder, and compound 57 was light yellow powder, which was ground with 0.5% CMC-Na before use and prepared into suspension with corresponding concentrations (0.2 and 0.4 mg/mL) for gavage.
SD rat, SPF grade, male, weighing 180-220 g, purchased from Shanghai Slake Experimental Animal Co., Ltd., production license number: SCXK (Hu) 2017-0005, quality certificate number: 20170005050604.
72 SD rats, male, weighed about 200-230 g after one week of acclimatization. […] Drugs for each group were prepared into suspension with corresponding concentration, and the administration volume was 0.5 mL/100 g.
After purchased and fed for acclimatization, the rats in each group were fasted for 12 h, and the model was established by intraperitoneal injection with potassium oxonate at the dose of 300 mg/kg, and each of the test drug groups were administrated once by gavage after model establishment. Blood samples were collected from posterior orbital venous plexus before and 1, 3 and 5 h after potassium oxonate injection, centrifugated at 3500 rpm for 10 min, and 30 μL serum was taken to determine uric acid levels at each time point.
Then in two consecutive days, rat models were established with potassium oxonate by intraperitoneal injection at a dose of 300 mg/kg every day, and each test drug group was administrated once by gavage after model establishment. On the third day of administration, the rats were fasted for 12 h, and with the same test method on the first day, blood samples were collected from the posterior orbital venous plexus before and 1, 3 and 5 h after potassium oxonate injection, centrifuged at 3500 rpm for 10 min, and 30 μL serum was taken to determine the uric acid level at each time point.
The measurement data of each experiment were expressed as (mean)±s (standard deviation). ANOVA-Dunnett T test was used to investigate the significance between groups, and P<0.05 was used as a significant index, P<0.01 was used as a very significant index.

In the next series the test system is subjects. Conditions: allopurinol used at maximum doses; cited from earlier work.
Setting [2] is: 1-day administration, 1 mg/kg gavage.
Where [3] appears, read: 1-day administration, 2 mg/kg gavage.
The mark [4] stands for this setting: 3-day administration, 1 mg/kg gavage.
The mark [5] stands for this setting: 3-day administration, 2 mg/kg gavage.

In the case of `Cc1nc(-c2ccc(OCC(C)C)c(C#N)c2)sc1C(=O)O` [Febuxostat, reference compound], in the series with patients with gout (febuxostat vs allopurinol group, 95% CI 1.01-1.47), the “All-cause mortality, HR” value was 1.22. Besides, the “Cardiovascular mortality, HR” value in the series with patients with gout (febuxostat vs allopurinol group, 95% CI 1.03-1.73) is listed as 1.34. In the series on patients with gout (febuxostat vs allopurinol group, average of 32 months of treatment, 95% CI 0.87-1.23), the “Overall risk of adverse cardiovascular events, HR” value is on record as 1.03. The “Sudden cardiac death, share of group” value in the series with patients with gout is 2.7%. Further, the “Uric acid 1 h” value in series [1] (setting [2]) stood at 76.4 ± 11.4 µmol/L; in series [1] (setting [3]), 59.7 ± 6.6 µmol/L; in series [1] (setting [4]), 53.0 ± 12.0 µmol/L; in series [1] (setting [5]) it was 47.5 ± 7.9 µmol/L. For the same compound, the “Uric acid 3 h” value in series [1] (setting [2]) stood at 91.3 ± 13.3 µmol/L; in series [1] (setting [3]), 60.7 ± 15.0 µmol/L; in series [1] (setting [4]), 71.4 ± 23.5 µmol/L; in series [1] (setting [5]), 51.8 ± 6.7 µmol/L. Besides, the “Uric acid 5 h” value was determined as 65.7 ± 12.4 µmol/L in series [1] (setting [2]) and 61.1 ± 8.1 µmol/L in series [1] (setting [4]). Also, the “Uric acid 0 h” value was found to be 81.3 ± 7.8 µmol/L in series [1] (setting [2]), 67.2 ± 1.9 µmol/L in series [1] (setting [3]), 66.0 ± 11.3 µmol/L in series [1] (setting [4]) and 65.5 ± 8.8 µmol/L in series [1] (setting [5]). In addition, the “Serum uric acid level compared with model group” value in series [1] (1-day administration) and in series [1] (3-day administration) was “significantly decreased” throughout.

As to `Oc1ncnc2[nH]ncc12` [allopurinol, Allopurinol], the “Sudden cardiac death, share of group” value in the series on patients with gout is given as 1.8%. In addition, in the series on subjects, the “Subjects reaching the treatment endpoint” value was “less than 50%”.
